The text below walks through data of patent publication US9782368B2, “Use of N,N-bis-2-mercaptoethyl isophthalamide” (EMERAMED LIMITED, priority 2014, dated 2017).

Data set [1] relates to IL-6 and IL-8 secretion in A549 cells. Kind of data set: Particle-induced secretion of pro-inflammatory cytokines (ELISA) in A549 cells. It is filed as cell-based. Conditions: A549 cells. As to the method: Secretion of the pro-inflammatory cytokines interleukin (IL)-6, IL-8 (as well as GM-CSF and MCP-1) into cell media in response to particle exposure was measured in A549 and BEAS-2B cells using the following method.
Lung epithelial cells were seeded at 5×10^4 in 24-well plates. After pre-incubation with NBMI, the anti-oxidant compound, N-acetyl-L-cysteine (NAC), which was used as a positive control, or vehicle, for 3 hours the medium was removed.
Fresh media containing various particles (as below) in different concentrations was in a total volume of 0.5 ml for an additional 24 hours. The supernatants were then separated from the cells by centrifugation.
IL-8, IL-6, GM-CSF and MCP-1 were measured in the cell free fluid using the DuoSet ELISA Development kit (R&D Systems, Abingdon, UK) according to manufacturer's protocol.
Exposure to medium only served as negative control. Each experiment was performed twice with 4 replicates.
The effect of pre-incubation with 50 μM NBMI on particle-induced cytokine formation was tested at various concentrations of relevant particles.

In data set [2] the test system is cigarette smoke (CS)-induced airway disease. Put plainly: In vivo smoking mouse study I (14-day cigarette smoke exposure). On the set-up: species or system BALB/c mice. As to the method: A mouse model of cigarette smoke (CS)-induced airway disease was developed, in which four groups of BALB/c mice were exposed to CS (nose-only) using a cigarette smoking machine that produces a combination of side-stream and mainstream smoke from filtered research cigarettes, 7 days a week over 2 weeks.
As part of a 14-day dose-finding study, three groups of mice were administered NMBI subcutaneously (5, 30 or 150 mg/kg) before each exposure to CS. Inflammatory cell counts in bronchoalveolar lavage (BAL), flow cytometry (FACS) analysis and cytokine analysis in BAL were carried out.
Female BALB/c mice (Harlem laboratories, Netherlands) were used in this study. They were housed in plastic cages with absorbent bedding material and were maintained on a 12 hour daylight cycle. Food and water were provided ad libitum. Their care and the experimental protocols were approved by the Regional Ethics Committee on Animal Experiments in Umeå. Mice were 12 weeks of age when the cigarette exposure protocol started.
Animals were subjected to inhaled CS (both side-stream and main-stream smoke). The CS exposure was performed in a microprocessor-controlled cigarette smoking machine (TE-10, Teague Enterprises, CA, USA) that produces smoke from research cigarettes (1R5F, University of Kentucky, Lexington, Ky., USA).
Cigarettes are automatically loaded into a wheel, lit, puffed and ejected. Each cigarette was smoked for 10 minutes and the airflow through the machine was set to 12 L/min. Cigarettes were stored at −20° C. until needed. Mice were subjected to 4 cigarettes every 10 minutes×3 (i.e. 12 cigarettes over 30 minutes), once a day, 7 days a week, over two weeks. The smoke was transferred into a smoke tower (EMMS, UK) providing equal and simultaneous exposure to the CS.
Mice were placed into plastic chambers and subjected to CS by “nose-only” inhalation. Control mice were handled every day and breathed room-air, but were not taken out of their cages.
Accordingly, the 5 treatment groups are as follows: • 1. Daily exposure to clean air (Placebo Group) • 2. Daily exposure to CS (CS-Exposed Placebo Group) • 3. Daily exposure to CS; treated with NBMI at a 5 mg/kg dose (NBMI 5 mg/kg Group) • 4. Daily exposure to CS; treated with NBMI at a 30 mg/kg dose (NBMI 30 mg/kg Group) • 5. Daily exposure to CS; treated with NBMI at a 150 mg/kg dose (NBMI 150 mg/kg Group)
On Day 15, mice were exsanguinated and subjected to bronchoalveolar lavage (BAL). The lungs were lavaged four times via the tracheal tube with a total volume of 1 mL+3×1 mL Ca^2+/Mg^2+ free Hanks' balanced salt solution (HBSS, Sigma-Aldrich, Steinheim, Germany).
The BAL fluid was then immediately centrifuged (10 minutes, 4° C., 1750 rpm). After removing the supernatant until further analysis, the cell pellet was re-suspended and then diluted with 0.5 mL PBS. Leukocytes were counted manually in a hemocytometer so that 20,000 cells could be loaded and centrifuged using a Cytospin® centrifuge (Shandon® cytospin 3 cyto-centrifuge, cell preparation system).
Cytocentrifuged preparations were stained with May-Grünwald-Giemsa reagent and differential cell counts of pulmonary inflammatory cells (macrophages, neutrophils, lymphocytes, and eosinophils) were made using standard morphological criteria and counting 300 cells per cytospin preparation.
Inflammatory mediators in BAL and serum were analyzed for the presence of interleukin (IL)-1α, IL-1β, IL-2, IL-3, IL-4, IL-5, IL-6, IL-9, IL-10, IL-12p40, IL-12p70, IL-13, IL17, Eotaxin, G-CSF, INFγ, GM-CSF, KC, MCP-1, MIP-1α, MIP-Iβ, RANTES and TNFα. All cytokine analyses were performed simultaneously with a multiplex kit (BioPlex™ Pro Mouse Cytokine 23-plex panel) according to the manufacturer's instructions (Bio-Rad) and analyzed on a Bio-Plex™ system (Luminex Bio-Plex™ 200 System, Bio-Rad, Hercules, Calif.).
Leukocytes from BAL were analyzed with flow cytometry using a BD FACSort™ (Becton Dickinson, San Jose, Calif.). […]

Where [3] appears, read: TiO2 P25 75 μg/cm^2, pre-incubation 50 μM NBMI.
[4] abbreviates: Urban Dust 100 μg/cm^2, pre-incubation 50 μM NBMI.

`O=C(NCCS)c1cccc(C(=O)NCCS)c1` [NBMI, N,N-bis-2-mercaptoethyl isophthalamide]: in data set [1] (setting [3]), the “reduction of secretion of IL-6” value came to 38% and the “reduction of secretion of IL-8” value amounted to 29%. Further, in data set [1] (setting [4]), the “reduction of secretion of IL-6” value is listed as 38% and the “reduction of secretion of IL-8” value turned out to be 30%. Further, in data set [2] (5 mg/kg s.c., p<0.05), the “MIP-1α levels in BAL vs CS-Exposed Placebo Group” value was “lowered”. The “IL-10 level in serum” value in data set [2] (30 mg/kg s.c.) is recorded as “increased levels”. In data set [2] (150 mg/kg s.c.), the “Eotaxin level in serum vs CS-Exposed Placebo Group” value is listed as “significantly lowered levels”, the “IL-1β level in serum vs CS-Exposed Placebo Group” value is listed as “significantly lowered levels”, the “IL-3 level in serum vs CS-Exposed Placebo Group” value is “significantly lowered levels” and the “IL-6 level in serum vs CS-Exposed Placebo Group” value was “significantly lowered levels”. In addition, in data set [2] (150 mg/kg s.c.), the “MIP-1α level in serum vs CS-Exposed Placebo Group” value is listed as “significantly lowered levels” and the “RANTES level in serum vs CS-Exposed Placebo Group” value is reported as “significantly lowered levels”. For the same compound, the “wounds at injection site” value in data set [2] (150 mg/kg s.c., 14 days) is “established wounds in the neck”. The ulceration entry in data set [2] (5 and 30 mg/kg s.c., 14 days) is reported as “no signs of ulceration”. Further, in data set [2] (CS-exposed, regardless of dose of NBMI), the “weight change from Day 1 to Day 15” value was “lost weight significantly”. In addition, the final weight in data set [2] (Day 15, 5 mg/kg s.c., CS-exposed, vs CS-exposed 20.3±0.3 g, p<0.05) is 19.5 ± 0.3 g. Moreover, the “neutrophils in BAL vs mice just exposed to CS” value in data set [2] (Day 15, 30 mg/kg s.c.) is “significantly lower numbers of neutrophils”. The “neutrophils in BAL vs mice just exposed to CS” value in data set [2] (Day 15, 150 mg/kg s.c.) was “significantly lower numbers of neutrophils”. The “CD4 cells and CD8 cells in BAL fluid” value in data set [2] (all groups (5, 30, 150 mg/kg)) is “no significant differences”.
